The source of these data is patent publication US20110124607A1, “COMPOSITION FOR REGULATION CELLULAR SENESCENCE COMPRISING LYSOPHOSPHATIDIC ACID AND INHIBITOR OF ADENYLYL CYCLASE AS ACTIVE INGREDIENTS” (priority 2008, published 2011).

Common to all, as to format: cell-based, human
One assay has as its system p21waf1/cip1. The experiment in a line: Immunofluorescent staining of p21. The conditions noted are these: 30 μM LPA, 300 μM ACI, day 2 and day 4. The procedure:
FIG. 3 is a set of photographs illustrating the effect of LPA and ACI on the expressions of p21 and cyclin-D1 in young and senescent cells. Particularly, a-f, g-l and m-r are photographs illustrating that sub-cultured young cells (PD 20: Y) and senescent cells (PD 65: S) were serum-starved for 48 hours respectively, followed by treatment of LPA (a-f) and ACI (g-l) singly or together (m-r), and after culturing for 1, 2, and 4 days, the cells were fixed in 4% hydrogen peroxide, and stained with p21waf1/cip1 (A) and cyclin D1 (B) antibodies, followed by confirming immunofluorescence. At this time, nucleus was stained with DAPI.
Coverslips were placed on 24 well plate on which required amounts of young and senescent cells were distributed. Media were eliminated and the treated cells were washed with PBS twice. Then, the cells were fixed with 4% hydrogen peroxide. Non-specific protein staining was blocked using PBS containing 2% BSA (blocking serum). The cells were stained with primary antibody such as anti-AMPKα, anti-p-Thr172-AMPKα, anti-p-Ser485/491-AMPKα, anti-p53, anti-p-Ser15-p53, anti-p21waf1/cip1, and anti-cyclin D1. To stain nucleus, DAPI (1:1000) was also added, followed by observation under Zeiss LSM 510 laser scanning microscope.
Cells were treated with 30 μM of LPA, 300 μM of ACI or LPA+ACI for 4 days, followed by immunofluorescence to investigate p21 and cyclin D1 expressions (FIG. 3A). As a result, when young cells were treated with ACI alone or LPA+ACI, p21 expression was increased on day 2 and day 4 (FIG. 3A).

A further assay concerns p-Ser431-LKB1. The experiment in a line: Immuno-blotting of p-Ser431-LKB1. The conditions noted are these: 30 μM LPA, 300 μM ACI, 1, 2, 4 days. How it is done:
FIG. 8 is a set of photographs illustrating the effects of LPA and ACI on LKB1 phosphorylation in senescent cells. Precisely, sub-cultured young cells (PD 18) and senescent cells (PD64) were treated with 30 μM of LPA or 300 μM of LPA and ACI singly or together. After culturing the cells for 1, 2, and 4 days, proteins were extracted from the cultured cells and the levels of LKB1, p-Ser431-LKB1 and β-actin were quantified by immuno-blotting using 45 μg of the protein.
To analyse protein expression, human fibroblasts were lysed in cold lysis buffer (25 mM Hepes, pH 8.0, 150 mM NaCl, 1 mM EDTA, 1 mM Na3VO4, 1 mM NaF, 1% Triton X-100 and protease inhibitors), followed by centrifugation at 4° C. at 9,000 rpm for 10 minutes to obtain supernatant. Protein in the extract was quantified […]. SDS-PAGE electrophoresis was performed with equal amount of the protein (45 μg) to separate. The separated protein was transferred onto NC membrane from the electrophoresis gel. Non-specific protein binding was blocked by blocking the blot (transferred NC membrane) using TTBS […] containing 5% skim milk for one hour. Then, antigen-antibody reaction was induced with diluted primary antibody at 4° C. for overnight. The blot was washed with TTBS, followed by reaction with horseradish peroxidase conjugated anti-IgGs diluted in TTBS containing 5% skim milk (1:5000) at room temperature for one hour. The blot was washed again with TTBS to eliminate non-specific binding of antigen-antibody. Photographs were developed/printed on X-ray film (Kodak) using ECL kit (Pierce) containing peroxidase substrate to identify each protein.
It has been recently discovered that the tumor suppressor gene LKB1 is a member of AMPKK family (Hawley et al., 2003; Shaw et al., 2004; Woods et al., 2003a). Ser431-LKB1 phosphorylation promotes cell growth in the activated form of LKB1 (Sapkota et al., 2001). So, in this experiment, it was examined what effect the single treatment or co-treatment of LPA and ACI has on the expressions of p-Ser431-LKB1, LKB1 and β-actin (FIG. 8). […] Meanwhile, LKB1 expression therein was not changed.

The subject of the next assay is p-Thr172-AMPKα. In words: Immuno-blotting of p-Thr172-AMPKα. The conditions noted are these: for p-Thr172-AMPKα expression after suppressing PKA: senescent cells pre-treated with 10 mM PKA inhibitor Rp-cAMP for one hour; for Thr172-AMPKα phosphorylation: 30 μM LPA, 300 μM ACI, 10 mM AMPKI, 10 mM AICAR, up to day 4. How it is done: (A) and (B): Young and senescent cells were serum-starved for 2 days, followed by treatment with 10 mM of AMPK inhibitor […]) or 10 mM of AMPK activator AICAR(B) for 4 days. Proteins were extracted from the treated cells and the levels of AMPKα and p-Thr172-AMPKα, total p53, p-Ser15-p53 and […] measured by immuno-blotting. (C) and (D): Young cells (C) and senescent cells (D) were treated with 10 mM AMPKI or 10 mM AICAR and cultured for 4 days, followed by measurement of cell proliferation by cell counting. At this time, the experiment was repeated three times (p<0.001). (A) and (B) are photographs illustrating the results of immuno-blotting. Precisely, sub-cultured young cells (PD 18: A) and senescent cells (PD 64: B) were treated with 30 μM of LPA […] and ACI singly or together, followed by further culture for 1, 2, and 4 days. Proteins were extracted from the cultured cells and the levels of AMPKα, […] β-actin were quantified by immuno-blotting. (A) and (B) are photographs illustrating the results of immuno-blotting. Precisely, senescent cells (PD 64) were pre-treated with 10 mM of PKA inhibitor Rp-cAMP for one hour, followed by treatment with LPA(A) or ACI(B). After culturing the cells for 1, 2, and 4 days, proteins were extracted from the cultured cells and the levels of AMPKα, […] β-actin were quantified by immuno-blotting using 45 μg of the protein. To analyse protein expression, human fibroblasts were lysed in cold lysis buffer (25 mM Hepes, pH 8.0, 150 mM NaCl, 1 mM EDTA, 1 mM Na3VO4, 1 mM NaF, 1% Triton X-100 and protease inhibitors), followed by centrifugation at 4° C. at 9,000 rpm for 10 minutes to obtain supernatant. Protein in the extract was quantified […]. SDS-PAGE electrophoresis was performed with equal amount of the protein (45 μg) to separate. The separated protein was transferred onto NC membrane from the electrophoresis gel. Non-specific protein binding was blocked by blocking the blot (transferred NC membrane) using TTBS […] containing 5% skim milk for one hour. Then, antigen-antibody reaction was induced with diluted primary antibody at 4° C. for overnight. The blot was washed with TTBS, followed by reaction with horseradish peroxidase conjugated anti-IgGs diluted in TTBS containing 5% skim milk (1:5000) at room temperature for one hour. The blot was washed again with TTBS to eliminate non-specific binding of antigen-antibody. Photographs were developed/printed on X-ray film (Kodak) using ECL kit (Pierce) containing peroxidase substrate to identify each protein.

Consider `Nc1ncnc2c1ncn2C1CCCO1` (stereo not shown) [ACI, 9-(tetrahydro-2′-furyl)adenine], for which the “p21 expression (immunofluorescence)” value in the assay with p21waf1/cip1 (senescent cells) is “reduced”; in the assay on p21waf1/cip1 (young cells) it was “increased”. Besides, the Ser431-LKB1 phosphorylation entry in the assay with p-Ser431-LKB1 (senescent cells) is given as “reduced”; in the assay with p-Ser431-LKB1 (young cells) it was “increased”. Further, the “p-Thr172-AMPKα expression after suppressing PKA” value in the assay with p-Thr172-AMPKα is on record as “not changed”. Further, the results for the Thr172-AMPKα phosphorylation result in the assay with p-Thr172-AMPKα (senescent cells) and in the assay on p-Thr172-AMPKα (young cells) were “reduced” and “began to increase”, respectively.

As to lysophosphatidic acid [LPA], in the assay with p21waf1/cip1 (young cells), the “p21 expression (immunofluorescence)” value was “decrease”. Also, the Ser431-LKB1 phosphorylation entry is given as “gradually increased” with p-Ser431-LKB1 (senescent cells) and “gradually reduced” with p-Ser431-LKB1 (young cells). Moreover, in the assay on p-Thr172-AMPKα, the “p-Thr172-AMPKα expression after suppressing PKA” value is recorded as “not changed at all”. Also, the Thr172-AMPKα phosphorylation result with p-Thr172-AMPKα (senescent cells) and in the assay with p-Thr172-AMPKα (young cells) was “reduced” each time.
